Assay results taken from US20240092761A1, “QUINAZOLINE COMPOUNDS AND METHODS OF USE” (IAMBIC THERAPEUTICS, INC., priority 2022, published 2024).

How the values were obtained:
[1] = molecular target: CDK4/Cyclin D1 (Homo sapiens (Human), UniProt P11802); assay: CDK4/Cyclin D1 Mobility Shift Assay (MSA); format: biochemical; conditions: 0.2 mM ATP, read-out: CDK4/ CyclinD1 MSA IC50
From the text: CDK4/Cyclin D1 Mobility Shift Assay (MSA)
The purpose CDK4/Cyclin D1 assay is to evaluate the inhibition (% inhibition and IC50 values) in the presence of small molecule inhibitors by using a fluorescence based microfluidic mobility shift assay. CDK4/Cyclin D1 catalyzes the production of ADP from ATP that accompanies the phosphoryl transfer to the substrate peptide 5-FAM-Dyrktide (5-FAM-RRRFRPASPLRGPPK) (Perkin Elmer Peptide 34). The mobility shift assay (MSA) electrophoretically separates the fluorescently labelled peptides (substrate and phosphorylated product) following the kinase reaction. Both substrate and product are measured, and the ratio of these values is used to generate % conversion of substrate to product by the LabChip EZ Reader. Typical reaction solutions contained 2% DMSO (+/−inhibitor), 10 mM MgCl2, 1 mM EGTA, 0.05% BSA, 2 mM DTT, 0.2 mM ATP, 0.01% Brig-35, 1.5 uM 5-FAM-Dyrktide, 2.5 nM CDK4/Cyclin D1 in 50 mM HEPES buffer at pH 7.5. The reaction was initiated with the addition of substrate solution, following a 30-minute pre-incubation of enzyme and inhibitor at 22° C. in the reaction mix. The reaction was stopped after 180 minutes by the addition of 75 uL of 500 mM EDTA and measured on a Perkin Elmer EZ reader instrument. IC50 determinations were made from a plot of the fractional velocity as a function of inhibitor concentration fit to the 4 parameters IC50 equation.

[2] = molecular target: CDK6/Cyclin D3 (Homo sapiens (Human), UniProt Q00534); assay: CDK6/Cyclin D3 ADP-Glo Kinase Assay; format: biochemical; conditions: 100 uM ATP, read-out: CDK6/ CyclinD3 IC50
Sequence of CDK6/Cyclin D3 (Q00534 whole entry): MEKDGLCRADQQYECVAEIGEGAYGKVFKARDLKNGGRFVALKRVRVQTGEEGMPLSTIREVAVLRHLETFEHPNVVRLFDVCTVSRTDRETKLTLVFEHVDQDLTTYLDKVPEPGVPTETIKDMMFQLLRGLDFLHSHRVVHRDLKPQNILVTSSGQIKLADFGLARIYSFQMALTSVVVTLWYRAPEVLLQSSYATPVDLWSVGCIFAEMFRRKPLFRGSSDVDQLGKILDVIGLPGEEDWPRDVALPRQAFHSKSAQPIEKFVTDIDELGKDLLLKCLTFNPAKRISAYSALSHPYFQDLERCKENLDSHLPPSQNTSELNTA
Sequence of CDK6/Cyclin D3 (P30281 whole entry partner): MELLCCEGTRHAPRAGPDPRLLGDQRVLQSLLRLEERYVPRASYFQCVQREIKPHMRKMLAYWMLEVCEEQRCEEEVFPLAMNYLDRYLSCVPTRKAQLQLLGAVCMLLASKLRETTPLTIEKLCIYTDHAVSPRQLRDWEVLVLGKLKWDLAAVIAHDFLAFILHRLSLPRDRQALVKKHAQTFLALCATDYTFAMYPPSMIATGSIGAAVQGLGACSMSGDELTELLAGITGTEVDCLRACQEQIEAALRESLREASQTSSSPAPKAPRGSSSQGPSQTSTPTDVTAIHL
How it was run: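 Recombinant human CDK6/Cyclin D3 pre-incubated 30 min with inhibitor at room temperature, then reaction started with ATP/substrate and run 90 min at room temperature. ADP formed detected by ADP-Glo luminescence; IC50 from a 4-parameter fit of fractional velocity versus inhibitor concentration.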

[3] = molecular target: CDK2/Cyclin E1 full length (Homo sapiens (Human), UniProt P24941); assay: CDK2/Cyclin E1 Full Length ADP-Glo Kinase Assay; format: biochemical; conditions: 20 uM ATP, read-out: CDK2/ CyclinE1 IC50
How it was run: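 Full-length human CDK2/Cyclin E1 (0.328 nM) pre-incubated 30 min with inhibitor at RT, then reacted 90 min at RT with 20 uM ATP (Km 64.78 uM) and 0.75 uM substrate in pH 7.5 HEPES, 2% DMSO. ADP measured by ADP-Glo luminescence; IC50 from 4-parameter fit of fractional velocity.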

[4] = molecular target: CDK1/Cyclin B1 (Homo sapiens (Human), UniProt P06493); assay: CDK1/Cyclin B1 ADP-Glo Kinase Assay; format: biochemical; conditions: 80 uM ATP
Sequence of CDK1/Cyclin B1 (P06493 whole entry): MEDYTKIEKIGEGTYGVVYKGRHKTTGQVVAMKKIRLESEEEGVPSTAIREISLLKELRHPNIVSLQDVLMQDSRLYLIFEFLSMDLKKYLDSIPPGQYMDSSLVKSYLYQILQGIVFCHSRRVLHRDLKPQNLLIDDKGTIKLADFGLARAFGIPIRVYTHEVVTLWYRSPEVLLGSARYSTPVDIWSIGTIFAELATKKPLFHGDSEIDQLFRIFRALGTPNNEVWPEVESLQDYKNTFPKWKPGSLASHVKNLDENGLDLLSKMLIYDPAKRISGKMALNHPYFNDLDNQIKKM
Sequence of CDK1/Cyclin B1 (P14635 whole entry partner): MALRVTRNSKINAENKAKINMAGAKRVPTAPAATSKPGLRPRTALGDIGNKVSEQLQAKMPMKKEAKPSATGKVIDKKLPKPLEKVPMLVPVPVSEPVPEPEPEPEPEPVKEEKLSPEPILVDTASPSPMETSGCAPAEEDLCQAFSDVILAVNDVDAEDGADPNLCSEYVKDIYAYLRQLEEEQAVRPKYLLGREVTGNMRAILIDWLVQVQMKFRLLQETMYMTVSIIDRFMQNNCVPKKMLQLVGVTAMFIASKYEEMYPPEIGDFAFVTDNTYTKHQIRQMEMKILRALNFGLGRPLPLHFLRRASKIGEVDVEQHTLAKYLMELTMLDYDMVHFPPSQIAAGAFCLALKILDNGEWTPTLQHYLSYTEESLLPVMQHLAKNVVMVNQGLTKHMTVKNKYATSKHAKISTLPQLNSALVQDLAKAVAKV
How it was run: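 CDK1/cyclin B1 (4.917 nM) preincubated 30 min with inhibitor (2% DMSO), then 80 µM ATP (Km 78.6 µM) and 0.75 µM substrate added; 90 min, room temperature, pH 7.5. ADP measured by ADP-Glo luminescence; IC50 from 4-parameter fit.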

[5] = test system: OVCAR-3 cells; assay: Cell Growth Inhibition, OVCAR-3 (CellTiterGlo, 6 days); format: cell-based; conditions: Homo sapiens, 144 h; OVCAR-3, 6-day treatment, CellTiterGlo 2.0
How it was run: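 MCF-7 and OVCAR-3 cells (RPMI, 10% FBS) were seeded at 500 cells/well onto compound, typically 10–10,000 nM in half-log dilutions. Growth proceeded 6 days at 37 °C, then CellTiterGlo luminescence was read. % inhibition was taken versus control, and IC50 came from a four-parameter variable-slope fit.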

Sequence of CDK4/Cyclin D1 (P11802 whole entry): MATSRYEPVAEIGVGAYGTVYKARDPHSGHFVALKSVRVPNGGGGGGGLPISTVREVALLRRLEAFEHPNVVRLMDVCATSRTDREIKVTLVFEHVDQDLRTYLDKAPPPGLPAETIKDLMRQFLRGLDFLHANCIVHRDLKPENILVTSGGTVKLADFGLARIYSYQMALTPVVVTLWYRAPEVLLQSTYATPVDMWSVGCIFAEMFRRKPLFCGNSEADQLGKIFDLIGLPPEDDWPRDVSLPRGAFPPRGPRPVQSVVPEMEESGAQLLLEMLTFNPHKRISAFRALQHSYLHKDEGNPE
Sequence of CDK4/Cyclin D1 (P24385 whole entry partner): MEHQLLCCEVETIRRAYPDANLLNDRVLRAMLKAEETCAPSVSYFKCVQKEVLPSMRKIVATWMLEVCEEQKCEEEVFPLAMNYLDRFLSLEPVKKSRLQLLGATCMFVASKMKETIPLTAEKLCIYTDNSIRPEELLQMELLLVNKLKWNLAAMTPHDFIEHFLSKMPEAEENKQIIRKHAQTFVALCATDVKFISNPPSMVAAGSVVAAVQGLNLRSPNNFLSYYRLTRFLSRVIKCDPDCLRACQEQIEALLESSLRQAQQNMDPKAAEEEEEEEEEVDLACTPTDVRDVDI

Compound | IC50 [1] [nM] | IC50 [2] [nM] | IC50 [3] [nM] | IC50 [4] [nM] | IC50 [5] [nM]
CC1(C)CC2(CN(c3cccc4cnc(NC5CCN(S(C)(=O)=O)CC5)nc34)C2)C1 [Example 21, 8-(6,6-dimethyl-2-azaspiro[3.3]heptan-2-yl)-N-(1-(methylsulfonyl)piperidin-4-yl)quinazolin-2-amine] | 200 to 500 | > 2000 | 200 to 500 | > 2000 | 
CS(=O)(=O)N1CCC(Nc2ncc3cccc(N4CCC5(COC5)C4)c3n2)CC1 [Example 22, N-(1-(methylsulfonyl)piperidin-4-yl)-8-(2-oxa-6-azaspiro[3.4]octan-6-yl)quinazolin-2-amine] | < 200 | < 200 | < 200 | 500 to 2000 | 
CS(=O)(=O)N1CCC(Nc2ncc3cccc(N4CCC5(CCN(S(C)(=O)=O)C5)C4)c3n2)CC1 (stereo not drawn) [Example 23, 8-(7-(methylsulfonyl)-2,7-diazaspiro[4.4]nonan-2-yl)-N-(1-(methylsulfonyl)piperidin-4-yl)quinazolin-2-amine] | < 200 | < 200 | < 200 | > 2000 | 
CC(=O)N1CCC2(CC1)CCN(c1cccc3cnc(NC4CCN(S(C)(=O)=O)CC4)nc13)C2 [Example 25, 1-(2-(2-((1-(methylsulfonyl)piperidin-4-yl)amino)quinazolin-8-yl)-2,8-diazaspiro[4.5]decan-8-yl)ethan-1-one] | < 200 | 200 to 500 | < 200 | > 2000 | 
CS(=O)(=O)N1CCC(Nc2ncc3cccc(N4CCC5(CCC(F)(F)CC5)C4)c3n2)CC1 [Example 28, 8-(8,8-difluoro-2-azaspiro[4.5]decan-2-yl)-N-(1-(methylsulfonyl)piperidin-4-yl)quinazolin-2-amine] | < 200 | < 200 | < 200 | > 2000 | 
CN1CCN(C2CCN(c3cccc4cnc(NC5CCN(S(C)(=O)=O)CC5)nc34)C2)CC1 (stereo not drawn) [Example 29, 8-(3-(4-methylpiperazin-1-yl)pyrrolidin-1-yl)-N-(1-(methylsulfonyl)piperidin-4-yl)quinazolin-2-amine] | 500 to 2000 | > 2000 | 200 to 500 | > 2000 | 
CS(=O)(=O)N1CCC(Nc2ncc3cccc(N4CC5CC(C4)O5)c3n2)CC1 [Example 30, 8-(6-oxa-3-azabicyclo[3.1.1]heptan-3-yl)-N-(1-(methylsulfonyl)piperidin-4-yl)quinazolin-2-amine] | < 200 | 200 to 500 | < 200 | 500 to 2000 | 
CS(=O)(=O)N1CCC(Nc2ncc3cccc(N4CCC5(CCC(F)(F)C5)C4)c3n2)CC1 (stereo not drawn) [Example 34, 8-(7,7-difluoro-2-azaspiro[4.4]nonan-2-yl)-N-(1-(methylsulfonyl)piperidin-4-yl)quinazolin-2-amine] | < 200 | 200 to 500 | < 200 | 500 to 2000 | 
CCN1CC2(C1)CN(c1ccc(Nc3ncc4cccc(N5CC6(CCS6(=O)=O)C5)c4n3)nc1)C2 [Example 44, 6-(2-((5-(6-ethyl-2,6-diazaspiro[3.3]heptan-2-yl)pyridin-2-yl)amino)quinazolin-8-yl)-1-thia-6-azaspiro[3.3]heptane 1,1-dioxide] | < 200 | 200 to 500 | > 2000 | > 2000 | > 2000
CCN1CC2(C1)CN(c1ccc(Nc3ncc4cccc(N5CC6(C5)CC(F)(F)C6)c4n3)nc1)C2 [Example 49, 8-(6,6-difluoro-2-azaspiro[3.3]heptan-2-yl)-N-(5-(6-ethyl-2,6-diazaspiro[3.3]heptan-2-yl)pyridin-2-yl)quinazolin-2-amine] | < 200 | 200 to 500 | > 2000 | > 2000 | 
N-(1-(methyl sulfonyl) piperidin-4-yl)-8-(2,6-diazaspiro[3.4]octan-2-yl) quinazolin-2-amine [Example 32] | 200 to 500 | 500 to 2000 | < 200 | > 2000 | 
